# From US9504690B2, “Tetracyclic xanthene derivatives and methods of use thereof for the treatment of viral diseases” (Merck Sharp & Dohme Corp., priority 2011, dated 2016)
# Key:
# [1] = system: HCV replicon 2b WT; experiment: Cell-based HCV replicon assay, 2b WT; conditions: Hepatitis C virus, 72 h; replicon cells, harvested day 3, replicon RNA by real time PCR (Taqman)
# Experimental: (§1) To measure cell-based anti-HCV activity of selected compounds of the present invention, replicon cells were seeded at 5000 cells/well in 96-well collagen I-coated Nunc plates in the presence of the test compound. Various concentrations of test compound, typically in 10 serial 2-fold dilutions, were added to the assay mixture, with the starting concentration ranging from 250 μM to 1 μM. The final concentration of DMSO was 0.5%, fetal bovine serum was 5%, in the assay media. Cells were harvested on day 3 by the addition of 1× cell lysis buffer (Ambion cat #8721). The replicon RNA level was measured using real time PCR (Taqman assay). The amplicon was located in 5B. The PCR primers were: 5B.2F, ATGGACAGGCGCCCTGA (SEQ. ID. NO. 1); 5B.2R, […] (SEQ. ID. NO. 2); the probe sequence was FAM-labeled CACGCCATGCGCTGCGG (SEQ. ID. NO. 3). GAPDH RNA was used as endogenous control and was amplified in the same reaction as NS5B (multiplex PCR) using primers and VIC-labeled probe recommended by the manufacturer (PE Applied Biosystem). The real-time RT-PCR reactions were run on ABI PRISM 7900HT Sequence Detection System using the following program: 48° C. for 30 minutes, 95° C. for 10 minutes, 40 cycles of 95° C. for 15 sec, 60° C. for 1 minutes. The ΔCT values (CT5B-CTGAPDH) were plotted against the concentration of test compound and fitted to the sigmoid dose-response model using XLfit4 (MDL). […] Alternatively, to quantitate the absolute amount of replicon RNA, a standard curve was established by including serially diluted T7 transcripts of replicon RNA in the Taqman assay. All Taqman reagents were from PE Applied Biosystems. Such an assay procedure was described in detail in e.g. Malcolm et al., Antimicrobial Agents and Chemotherapy 50: 1013-1020 (2006).
# (§2) HCV replicon assay data was calculated for selected compounds of the present invention using this method and is provided in the table below.
# [2] = system: HCV replicon 3a WT; experiment: Cell-based HCV replicon assay, 3a WT; conditions: Hepatitis C virus, 72 h; replicon cells, harvested day 3, replicon RNA by real time PCR (Taqman)
# Experimental: as §1, §2
# [3] = system: HCV replicon 2a WT; experiment: Cell-based HCV replicon assay, 2a WT; conditions: Hepatitis C virus, 72 h; replicon cells, harvested day 3, replicon RNA by real time PCR (Taqman)
# Experimental: as §1, §2
# [4] = system: HCV replicon 1a WT; experiment: Cell-based HCV replicon assay, 1a WT; conditions: Hepatitis C virus, 72 h; replicon cells, harvested day 3, replicon RNA by real time PCR (Taqman)
# Experimental: as §1, §2
# [5] = system: HCV replicon 1a Y93H; experiment: Cell-based HCV replicon assay, 1a Y93H; conditions: Hepatitis C virus, 72 h, read-out: Replicon EC50 1a Y93H
# Experimental: as §1, §2
# [6] = system: HCV replicon 4a WT; experiment: Cell-based HCV replicon assay, 4a WT; conditions: Hepatitis C virus, 72 h; replicon cells, harvested day 3, replicon RNA by real time PCR (Taqman)
# Experimental: as §1, §2
# [7] = system: HCV replicon 1b Y93H; experiment: Cell-based HCV replicon assay, 1b Y93H; conditions: Hepatitis C virus, 72 h, read-out: Replicon EC50 1b Y93H
# Experimental: as §1, §2
# [8] = system: HCV replicon 1b WT; experiment: Cell-based HCV replicon assay, 1b WT; conditions: Hepatitis C virus, 72 h; replicon cells, harvested day 3, replicon RNA by real time PCR (Taqman)
# Experimental: as §1, §2
SMILES,EC50 [1],EC50 [2],EC50 [3],EC50 [4],EC50 [5],EC50 [6],EC50 [7],EC50 [8]
"COC(=O)N[C@H](C(=O)N1CCC[C@H]1c1ncc(-c2cc3c4c(c2)Oc2ccc(-c5cnc([C@@H]6CCCN6C(=O)[C@@H](NC(=O)OC)C(C)C)[nH]5)cc2N4CCO3)[nH]1)C(C)C [Compound 13, Methyl [(2S)-1-{(2S)-2-[5-(5-{2-[(2S)-1-{(2S)-2-[(methoxycarbonyl)amino]-3-methylbutanoyl}pyrrolidin-2-yl]-1H-imidazol-5-yl}-1,2-dihydro[1,4]oxazino[2,3,4-kl]phenoxazin-10-yl)-1H-imidazol-2-yl]pyrrolidin-1-yl}-3-methyl-1-oxobutan-2-yl]carbamate]",19.3 nM,1.63 nM,0.01 nM,0.002 nM,143 nM,0.48 nM,19 nM,0.005 nM
COC(=O)N[C@H](C(=O)N1CCC[C@H]1c1ncc(-c2ccc3c(c2)-n2ccc4cc(-c5cnc([C@@H]6CCCN6C(=O)[C@@H](NC(=O)OC)C(C)C)[nH]5)cc(c42)O3)[nH]1)C(C)C [Compound 16],9.07 nM,9.61 nM,0.104 nM,0.1 nM,50.9 nM,1.31 nM,9.1 nM,0.009 nM
"COC(=O)N[C@H](C(=O)N1CCC[C@H]1c1ncc(-c2ccc3c(c2)Oc2ccc(-c4cnc([C@@H]5CCCN5C(=O)[C@@H](NC(=O)OC)C(C)C)[nH]4)c4ccn-3c24)[nH]1)C(C)C [Compound 1, Methyl [(2S)-1-{(2S)-2-[5-(3-{2-[(2S)-1-{(2S)-2-[(methoxycarbonyl)amino]-3-methyl-butanoyl}pyrrolidin-2-yl]-1H-imidazol-5-yl}pyrrolo[3,2,1-kl]phenoxazin-8-yl)-1H-imidazol-2-yl]pyrrolidin-1-yl}-3-methyl-1-oxobutan-2-yl]carbamate]",,0.323 nM,0.004 nM,0.0107 nM,41.7 nM,0.044 nM,0.56 nM,0.009 nM
"COC(=O)N[C@H](C(=O)N1CCC[C@H]1c1ncc(-c2ccc3c(c2)Oc2ccc(-c4cnc([C@@H]5CCCN5C(=O)[C@@H](NC(=O)OC)C(C)C)[nH]4)c4occ-3c24)[nH]1)C(C)C [Compound 14, Methyl [(2S)-1-{(2S)-2-[5-(3-{2-[(2S)-1-{(2S)-2-[(methoxycarbonyl)amino]-3-methylbutanoyl}pyrrolidin-2-yl]-1H-imidazol-5-yl}furo[2,3,4-kl]xanthen-8-yl)-1H-imidazol-2-yl]pyrrolidin-1-yl}-3-methyl-1-oxobutan-2-yl]carbamate]",34.5 nM,0.161 nM,0.002 nM,0.011 nM,31.5 nM,0.056 nM,0.278 nM,0.002 nM
"COC(=O)N[C@H](C(=O)N1CCC[C@H]1c1ncc(-c2cc3c4c(c2)Oc2ccc(-c5cnc([C@@H]6CCCN6C(=O)[C@@H](NC(=O)OC)C(C)C)[nH]5)cc2N4CC3)[nH]1)C(C)C [Compound 6, Methyl [(2S)-1-{(2S)-2-[5-(4-{2-[(2S)-1-{(2S)-2-[(methoxycarbonyl)amino]-3-methylbutanoyl}pyrrolidin-2-yl]-1H-imidazol-5-yl}-1,2-dihydropyrrolo[3,2,1-kl]phenoxazin-9-yl)-1H-imidazol-2-yl]pyrrolidin-1-yl}-3-methyl-1-oxobutan-2-yl]carbamate]",18.9 nM,0.22 nM,0.011 nM,0.037 nM,43.5 nM,0.22 nM,0.303 nM,0.005 nM
COC(=O)N[C@H](C(=O)N1CCC[C@H]1c1ncc(-c2ccc3c(c2)Oc2ccc(-c4cnc([C@@H]5CCCN5C(=O)[C@@H](NC(=O)OC)C(C)C)[nH]4)c4c2N3CC4)[nH]1)C(C)C [Compound 17],19.6 nM,0.067 nM,0.007 nM,0.006 nM,19.5 nM,0.026 nM,19.6 nM,0.001 nM
